According to patent US8889712B2, “IAP antagonists” (Bristol-Myers Squibb Company, priority 2012, dated 2014):

Key:
XIAP BIR3 = target: T1, XIAP BIR3 (Homo sapiens, UniProt P98170); test: XIAP-BIR3/SMAC Homogeneous Time Resolved Fluorescence (HTRF) Assay; format: binding; settings: 1 nM N-His-BIR3 (241-356, XIAP), 5 nM fluorescein labeled SMAC peptide; HTRF signal; read-out: XIAP BIR3 IC50
T1 construct: His-BIR3 (241-356, XIAP)
Procedure: A. XIAP-BIR3/SMAC Homogeneous Time Resolved Fluorescence (HTRF) Assay Assays were performed in black, flat-bottom, 384-well plates. […] The reaction was incubated at room temperature for 60 minutes, following which 10 μl of mouse anti-6×His-terbium labeled Fab (Medarex, Cis-bio) was added to the reaction (40 μl) for an additional 30 minute incubation. […] Compounds were dissolved at 3 mM in dimethylsulfoxide (DMSO) and evaluated at eleven serially diluted concentrations. IC50 and Ki values were derived by non-linear regression analysis.

XIAP BIR2-3 = target: T2, XIAP BIR2-3 (Homo sapiens, UniProt P98170, C202A/C213G); test: XIAP-BIR2-3 dimeric SMAC Peptide Homogeneous Time Resolved Fluorescence (HTRF) Assay; format: binding; settings: 0.5 nM N-His-BIR2-3 (125-356, C202A/C213G, XIAP), 20 nM fluorescein labeled dimeric SMAC peptide; HTRF signal; read-out: XIAP BIR2-3 IC50
T2 construct: His-BIR2-3 (125-356, C202A/C213G, XIAP)
Procedure: B. […] Assays were performed in black, flat-bottom, 384-well plates. […] Compounds were dissolved at 3 mM in dimethylsulfoxide (DMSO) and evaluated at eleven serially diluted concentrations. IC50 and Ki values were derived by non-linear regression analysis.

T1 sequence (P98170 241-356): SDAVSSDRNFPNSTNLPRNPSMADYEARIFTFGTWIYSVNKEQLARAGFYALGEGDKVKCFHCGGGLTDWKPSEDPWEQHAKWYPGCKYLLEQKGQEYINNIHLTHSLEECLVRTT
T2 sequence (P98170 125-356 C202A/C213G): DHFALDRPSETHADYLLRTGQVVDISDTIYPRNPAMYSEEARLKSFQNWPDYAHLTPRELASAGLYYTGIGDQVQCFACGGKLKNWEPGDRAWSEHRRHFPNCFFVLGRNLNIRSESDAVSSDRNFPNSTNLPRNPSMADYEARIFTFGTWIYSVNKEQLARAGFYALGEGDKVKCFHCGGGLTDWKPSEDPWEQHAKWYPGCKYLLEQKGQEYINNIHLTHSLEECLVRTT

| IC50 (XIAP BIR3) [nM] | IC50 (XIAP BIR2-3) [nM] | SMILES |
| --- | --- | --- |
| 9 | 6 | CCN[C@@H](C)C(=O)N[C@H](C(=O)N1Cc2cc(C(=O)N[C@H]3C[C@@H](C(=O)NC4CCCc5ccccc54)N(C(=O)[C@@H](NC(=O)[C@H](C)NC)C(C)(C)C)C3)ccc2C[C@H]1C(=O)NC1CCCc2ccccc21)C(C)(C)C (stereo partly drawn) [Example 2] |
| 6 | 3 | CC[C@H](NC)C(=O)N[C@H](C(=O)N1Cc2cc(C(=O)N[C@H]3C[C@@H](C(=O)N[C@@H]4CCCc5ccccc54)N(C(=O)[C@@H](NC(=O)[C@H](C)NC)C(C)(C)C)C3)ccc2C[C@H]1C(=O)N[C@@H]1CCCc2ccccc21)C(C)(C)C [Example 3, (S)-2-((S)-3,3-Dimethyl-2-((S)-2-(methylamino)butanamido)butanoyl)-N^7-((3S,5S)-1-((S)-3,3-dimethyl-2-((S)-2-(methylamino)propanamido)butanoyl)-5-(((R)-1,2,3,4-tetrahydronaphthalen-1-yl)carbamoyl)pyrrolidin-3-yl)-N^3-((R)-1,2,3,4-tetrahydronaphthalen-1-yl)-1,2,3,4-tetrahydroisoquinoline-3,7-dicarboxamide] |
| 10 | 11 | CN[C@@H](C)C(=O)N[C@H](C(=O)N1C[C@@H](NC(=O)c2ccc3c(c2)CN(C(=O)[C@@H](NC(=O)[C@@H](NC)C(C)C)C(C)(C)C)[C@H](C(=O)N[C@@H]2CCCc4ccccc42)C3)C[C@H]1C(=O)N[C@@H]1CCCc2ccccc21)C(C)(C)C [Example 4, (S)-N^7-((3S,5S)-1-((S)-3,3-Dimethyl-2-((S)-2-(methylamino)propanamido)butanoyl)-5-(((R)-1,2,3,4-tetrahydronaphthalen-1-yl)carbamoyl)pyrrolidin-3-yl)-2-((S)-3,3-dimethyl-2-((S)-3-methyl-2-(methylamino)butanamido)butanoyl)-N^3-((R)-1,2,3,4-tetrahydronaphthalen-1-yl)-1,2,3,4-tetrahydroisoquinoline-3,7-dicarboxamide] |
| 14 | 13 | CN[C@@H](C)C(=O)N[C@H](C(=O)N1C[C@@H](NC(=O)c2ccc3c(c2)CN(C(=O)[C@@H](NC(=O)[C@@H](NC)C2CC2)C(C)(C)C)[C@H](C(=O)N[C@@H]2CCCc4ccccc42)C3)C[C@H]1C(=O)N[C@@H]1CCCc2ccccc21)C(C)(C)C [Example 5, (S)-2-((S)-2-((S)-2-Cyclopropyl-2-(methylamino)acetamido)-3,3-dimethylbutanoyl)-N^7-((3S,5S)-1-((S)-3,3-dimethyl-2-((S)-2-(methylamino)propanamido)butanoyl)-5-(((R)-1,2,3,4-tetrahydronaphthalen-1-yl)carbamoyl)pyrrolidin-3-yl)-N^3-((R)-1,2,3,4-tetrahydronaphthalen-1-yl)-1,2,3,4-tetrahydroisoquinoline-3,7-dicarboxamide] |
| 6 | 6 | CN[C@@H](C)C(=O)N[C@H](C(=O)N1Cc2cc(C(=O)N[C@H]3C[C@@H](C(=O)N[C@@H]4CCCc5ccccc54)N(C(=O)[C@@H](NC(=O)[C@H](C)NC)C(C)(C)C)C3)ccc2C[C@H]1C(=O)N[C@@H]1CCCc2ccccc21)[C@@H](C)OC [Example 7, (S)-N^7-((3S,5S)-1-((S)-3,3-Dimethyl-2-((S)-2-(methylamino)propanamido)butanoyl)-5-(((R)-1,2,3,4-tetrahydronaphthalen-1-yl)carbamoyl)pyrrolidin-3-yl)-2-((2S,3R)-3-methoxy-2-((S)-2-(methylamino)propanamido)butanoyl)-N^3-((R)-1,2,3,4-tetrahydronaphthalen-1-yl)-1,2,3,4-tetrahydroisoquinoline-3,7-dicarboxamide] |
| 11 | 2 | CCC(CC)[C@H](NC(=O)[C@H](C)NC)C(=O)N1Cc2cc(C(=O)N[C@H]3C[C@@H](C(=O)N[C@@H]4CCCc5ccccc54)N(C(=O)[C@@H](NC(=O)[C@H](C)NC)C(C)(C)C)C3)ccc2C[C@H]1C(=O)N[C@@H]1CCCc2ccccc21 [Example 8, (S)-N^7-((3S,5S)-1-((S)-3,3-Dimethyl-2-((S)-2-(methylamino)propanamido)butanoyl)-5-(((R)-1,2,3,4-tetrahydronaphthalen-1-yl)carbamoyl)pyrrolidin-3-yl)-2-((S)-3-ethyl-2-((S)-2-(methylamino)propanamido)pentanoyl)-N^3-((R)-1,2,3,4-tetrahydronaphthalen-1-yl)-1,2,3,4-tetrahydroisoquinoline-3,7-dicarboxamide] |
| 33 | 3 | CN[C@@H](C)C(=O)N[C@@H](CC1CCCCC1)C(=O)N1Cc2cc(C(=O)N[C@H]3C[C@@H](C(=O)N[C@@H]4CCCc5ccccc54)N(C(=O)[C@@H](NC(=O)[C@H](C)NC)C(C)(C)C)C3)ccc2C[C@H]1C(=O)N[C@@H]1CCCc2ccccc21 [Example 9, (S)-2-((S)-3-Cyclohexyl-2-((S)-2-(methylamino)propanamido)propanoyl)-N^7-((3S,5S)-1-((S)-3,3-dimethyl-2-((S)-2-(methylamino)propanamido)butanoyl)-5-(((R)-1,2,3,4-tetrahydronaphthalen-1-yl)carbamoyl)pyrrolidin-3-yl)-N^3-((R)-1,2,3,4-tetrahydronaphthalen-1-yl)-1,2,3,4-tetrahydroisoquinoline-3,7-dicarboxamide] |
| 63 | 4 | CN[C@@H](C)C(=O)N[C@H](C(=O)N1C[C@@H](NC(=O)c2ccc3c(c2)CN(C(=O)[C@@H](NC(=O)[C@H](C)NC)C24CC5CC(CC(C5)C2)C4)[C@H](C(=O)NC2CCCc4ccccc42)C3)C[C@H]1C(=O)NC1CCCc2ccccc21)C(C)(C)C (stereo partly drawn) [Example 10, (S)-2-((S)-2-((3S,5S,7S)-Adamantan-1-yl)-2-((S)-2-(methylamino)propanamido)acetyl)-N^7-((3S,5S)-1-((S)-3,3-dimethyl-2-((S)-2-(methylamino)propanamido)butanoyl)-5-(((R)-1,2,3,4-tetrahydronaphthalen-1-yl)carbamoyl)pyrrolidin-3-yl)-N^3-((R)-1,2,3,4-tetrahydronaphthalen-1-yl)-1,2,3,4-tetrahydroisoquinoline-3,7-dicarboxamide] |
| 25 | 10 | CN[C@@H](C)C(=O)N[C@@H](Cc1cc(F)cc(F)c1)C(=O)N1Cc2cc(C(=O)N[C@H]3C[C@@H](C(=O)N[C@@H]4CCCc5ccccc54)N(C(=O)[C@@H](NC(=O)[C@H](C)NC)C(C)(C)C)C3)ccc2C[C@H]1C(=O)N[C@@H]1CCCc2ccccc21 [Example 11, (S)-2-((S)-3-(3,5-Difluorophenyl)-2-((S)-2-(methylamino)propanamido)propanoyl)-N^7-((3S,5S)-1-((S)-3,3-dimethyl-2-((S)-2-(methylamino)propanamido)butanoyl)-5-(((R)-1,2,3,4-tetrahydronaphthalen-1-yl)carbamoyl)pyrrolidin-3-yl)-N^3-((R)-1,2,3,4-tetrahydronaphthalen-1-yl)-1,2,3,4-tetrahydroisoquinoline-3,7-dicarboxamide] |
| 19 | 15 | CN[C@@H](C)C(=O)N[C@H](C(=O)N1Cc2cc(C(=O)N[C@H]3C[C@@H](C(=O)N[C@@H]4CCCc5ccccc54)N(C(=O)[C@@H](NC(=O)[C@H](C)NC)C(C)(C)C)C3)ccc2C[C@H]1C(=O)N[C@@H]1CCCc2ccccc21)C1CCCC1 [Example 12, (S)-2-((S)-2-Cyclopentyl-2-((S)-2-(methylamino)propanamido)acetyl)-N^7-((3S,5S)-1-((S)-3,3-dimethyl-2-((S)-2-(methylamino)propanamido)butanoyl)-5-(((R)-1,2,3,4-tetrahydronaphthalen-1-yl)carbamoyl)pyrrolidin-3-yl)-N^3-((R)-1,2,3,4-tetrahydronaphthalen-1-yl)-1,2,3,4-tetrahydroisoquinoline-3,7-dicarboxamide] |
| 6 | 2 | CN[C@@H](C)C(=O)N[C@H](C(=O)N1Cc2cc(C(=O)N[C@H]3C[C@@H](C(=O)NC4CCCc5ccccc54)N(C(=O)[C@@H](NC(=O)[C@H](C)NC)C(C)(C)C)C3)ccc2C[C@H]1C(=O)NC1CCCc2ccccc21)C1CCOCC1 (stereo partly drawn) [Example 13] |
| 29 | 15 | CCN[C@@H](C)C(=O)N[C@H](C(=O)N1C[C@@H](NC(=O)c2ccc3c(c2)CN(C(=O)[C@@H](NC(=O)[C@H](C)NC)C(C)(C)C)[C@H](C(=O)N[C@@H]2CCCc4ccccc42)C3)C[C@H]1C(=O)N[C@@H]1CCCc2ccccc21)C(C)(C)C [Example 14, (S)-2-((S)-3,3-Dimethyl-2-((S)-2-(methylamino)propanamido)butanoyl)-N^7-((3S,5S)-1-((S)-2-((S)-2-(ethylamino)propanamido)-3,3-dimethylbutanoyl)-5-(((R)-1,2,3,4-tetrahydronaphthalen-1-yl)carbamoyl)pyrrolidin-3-yl)-N^3-((R)-1,2,3,4-tetrahydronaphthalen-1-yl)-1,2,3,4-tetrahydroisoquinoline-3,7-dicarboxamide] |
